Results published in PubChem BioAssay AID328 (DTP/NCI, 2004).
Values joined by “and” are separate entries in the source; they are usually repeats but may differ in a detail not shown here. Equal entries are not always repeated. Toxic doses and inconclusive results are not listed. How the source made its calls: active means survival T/C of 150% or more; inactive means T/C below 125% in these data.

System: BDF1 mice, P388 leukemia ip, median survival T/C
Experiment: NCI In Vivo Anticancer Drug Screen. Data for tumor model P388 Leukemia (intraperitoneal) in B6D2F1 (BDF1) mice
Conditions: endpoint: median survival time, higher = longer survival
In short: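 Vehicle-dosed animals serve as the reference; survival of compound-dosed, tumour-implanted mice is divided by it.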

[1] = dose: 100.0 mg/kg/injection, schedule: Q01DX009 (ip), vehicle: Klucel (hydroxypropylcellulose) (HPC)
[2] = dose: 100.0 mg/kg/injection, schedule: Q04DX003 (ip), vehicle: Klucel (hydroxypropylcellulose) (HPC)
[3] = dose: 200.0 mg/kg/injection, schedule: Q01DX009 (ip), vehicle: Klucel (hydroxypropylcellulose) (HPC)
[4] = dose: 200.0 mg/kg/injection, schedule: Q04DX003 (ip), vehicle: Klucel (hydroxypropylcellulose) (HPC)
[5] = dose: 400.0 mg/kg/injection, schedule: Q01DX009 (ip), vehicle: Klucel (hydroxypropylcellulose) (HPC)
[6] = dose: 400.0 mg/kg/injection, schedule: Q04DX003 (ip), vehicle: Klucel (hydroxypropylcellulose) (HPC)
[7] = dose: 6.25 mg/kg/injection, schedule: Q01DX009 (ip), vehicle: saline
[8] = dose: 12.5 mg/kg/injection, schedule: Q01DX009 (ip), vehicle: saline
[9] = dose: 50.0 mg/kg/injection, schedule: Q01DX009 (ip), vehicle: saline
[10] = dose: 50.0 mg/kg/injection, schedule: Q01DX009 (ip), vehicle: saline with Tween-80
[11] = dose: 100.0 mg/kg/injection, schedule: Q01DX009 (ip), vehicle: saline with Tween-80
[12] = dose: 200.0 mg/kg/injection, schedule: Q01DX009 (ip), vehicle: saline with Tween-80
[13] = dose: 100.0 mg/kg/injection, schedule: Q01DX009 (ip), vehicle: saline
[14] = dose: 100.0 mg/kg/injection, schedule: Q04DX003 (ip), vehicle: saline
[15] = dose: 200.0 mg/kg/injection, schedule: Q01DX009 (ip), vehicle: saline
[16] = dose: 25.0 mg/kg/injection, schedule: Q01DX009 (ip), vehicle: Klucel (hydroxypropylcellulose) (HPC)
[17] = dose: 50.0 mg/kg/injection, schedule: Q01DX009 (ip), vehicle: Klucel (hydroxypropylcellulose) (HPC)
[18] = dose: 50.0 mg/kg/injection, schedule: Q04DX003 (ip), vehicle: saline with Tween-80
[19] = dose: 100.0 mg/kg/injection, schedule: Q04DX003 (ip), vehicle: saline with Tween-80
[20] = dose: 200.0 mg/kg/injection, schedule: Q04DX003 (ip), vehicle: saline with Tween-80
[21] = dose: 200.0 mg/kg/injection, schedule: Q04DX003 (ip), vehicle: saline
[22] = dose: 400.0 mg/kg/injection, schedule: Q04DX003 (ip), vehicle: saline

Measured: T/C

CCOC(=O)C1CCC(C(=O)OCC)N1c1ccc(C=O)cc1 (configuration not stated)
inactive: [1] 122 % of control | [2] 105 % of control | [3] 105 % of control | [4] 100 % of control | [5] 122 % of control | [6] 100 % of control

O=C(Nc1ccc(Cl)c(Cl)c1)Nc1c(Oc2ccc(Cl)c(Cl)c2)ccc(Cl)c1S(=O)(=O)O
inactive: [7] 118 % of control | [8] 109 % of control | dose: 25.0 mg/kg/injection, schedule: Q01DX009 (ip), vehicle: saline 104 % of control | dose: 35.0 mg/kg/injection, schedule: Q01DX009 (ip), vehicle: saline 118 % of control | [9] 105 % of control | dose: 55.0 mg/kg/injection, schedule: Q01DX009 (ip), vehicle: saline 113 % of control | dose: 80.0 mg/kg/injection, schedule: Q01DX009 (ip), vehicle: saline 111 % of control

S=c1nn[nH]n1-c1ccccc1.[Zn+2]
inactive: [10] 109 % of control | [11] 118 % of control

Cc1ccc(S(=O)(=O)OCC2C3CCC2C3)cc1 (configuration not stated)
inactive: [10] 101 % of control | [11] 107 % of control | [12] 107 % of control

C=C(C)C(=O)O[C@H]1CC2=CC(CC(C)=C[C@H]3OC(=O)C(=C)C13)OC2=O (some centres not stated)
inactive: dose: 12.5 mg/kg/injection, schedule: Q01DX001 (ip), vehicle: saline with Tween-80 109 % of control | dose: 25.0 mg/kg/injection, schedule: Q01DX001 (ip), vehicle: saline with Tween-80 120 % of control | dose: 50.0 mg/kg/injection, schedule: Q01DX001 (ip), vehicle: saline with Tween-80 107 % of control and 111 % of control

O=C(O)CS(=O)(=O)c1ccccc1
inactive: dose: 25.0 mg/kg/injection, schedule: Q04DX003 (ip), vehicle: saline 109 % of control | dose: 50.0 mg/kg/injection, schedule: Q01DX001 (ip), vehicle: other 95 % of control | [9] 108 % of control | dose: 50.0 mg/kg/injection, schedule: Q04DX003 (ip), vehicle: saline 109 % of control | dose: 100.0 mg/kg/injection, schedule: Q01DX001 (ip), vehicle: other 100 % of control | [13] 120 % of control | [14] 100 % of control | [15] 108 % of control

CC(=O)O.O=CCO.[C-]#[O+].[C-]#[O+].[C-]#[O+].[C-]#[O+].[Rh].[Rh]
inactive: [16] 119 % of control | [17] 122 % of control

C=C(Cl)CSCCS
inactive: dose: 25.0 mg/kg/injection, schedule: Q01DX009 (ip), vehicle: acetone 104 % of control | dose: 50.0 mg/kg/injection, schedule: Q01DX009 (ip), vehicle: acetone 104 % of control

C[C@]12CCC(=O)C=C1CC[C@@H]1C2=CC[C@@]2(C)[C@H]1CC[C@]2(C)O
inactive: dose: 0.78 mg/kg/injection, schedule: Q01DX009 (ip), vehicle: Klucel (hydroxypropylcellulose) (HPC) 100 % of control | dose: 1.56 mg/kg/injection, schedule: Q01DX009 (ip), vehicle: Klucel (hydroxypropylcellulose) (HPC) 90 % of control | dose: 3.12 mg/kg/injection, schedule: Q01DX009 (ip), vehicle: Klucel (hydroxypropylcellulose) (HPC) 86 % of control | [17] 87 % of control | [2] 109 % of control | [3] 87 % of control | [4] 104 % of control

CCCCCCCCCCCC[N+](C)(C)CCCCCC[N+](C)(C)CCCCCCCCCCCC
inactive: dose: 3.13 mg/kg/injection, schedule: Q01DX009 (ip), vehicle: saline 113 % of control | [7] 116 % of control | [8] 94 % of control

CCOC(=O)/C=C/c1ccco1
inactive: [10] 100 % of control | [18] 104 % of control | [11] 88 % of control | [19] 109 % of control | [12] 88 % of control | [20] 109 % of control

CS(=O)(=O)c1cnc2ccccc2n1
inactive: dose: 25.0 mg/kg/injection, schedule: Q01DX009 (ip), vehicle: saline with Tween-80 97 % of control | [10] 99 % of control | [11] 90 % of control

Cc1ccc(S[Si](Sc2ccc(C)cc2)(Sc2ccc(C)cc2)Sc2ccc(C)cc2)cc1
inactive: dose: 200.0 mg/kg/injection, schedule: Q04DX002 (ip), vehicle: saline with Tween-80 92 % of control | dose: 400.0 mg/kg/injection, schedule: Q04DX002 (ip), vehicle: saline with Tween-80 100 % of control

COC(=O)OCCOC(=O)OC
inactive: [13] 100 % of control | [14] 95 % of control | [15] 110 % of control | [21] 100 % of control | dose: 400.0 mg/kg/injection, schedule: Q01DX009 (ip), vehicle: saline 100 % of control | [22] 100 % of control

CN(C)c1ccc2c(N(C)C)cc(N(C)C)nc2c1
inactive: dose: 12.5 mg/kg/injection, schedule: Q01DX009 (ip), vehicle: Klucel (hydroxypropylcellulose) (HPC) 111 % of control | [16] 89 % of control | [17] 120 % of control

C/C=C1\C[N+]2(C)CCc3c([nH]c4ccccc34)C2CC1Cc1nccc2c1[nH]c1ccccc12 (configuration not stated)
inactive: dose: 1.0 mg/kg/injection, schedule: Q04DX003 (ip), vehicle: saline 107 % of control | dose: 2.0 mg/kg/injection, schedule: Q04DX003 (ip), vehicle: saline 98 % of control | dose: 4.0 mg/kg/injection, schedule: Q04DX003 (ip), vehicle: saline 98 % of control | dose: 6.0 mg/kg/injection, schedule: Q04DX003 (ip), vehicle: saline 102 % of control | dose: 12.0 mg/kg/injection, schedule: Q04DX003 (ip), vehicle: saline 113 % of control | dose: 24.0 mg/kg/injection, schedule: Q04DX003 (ip), vehicle: saline 118 % of control | dose: 48.0 mg/kg/injection, schedule: Q04DX003 (ip), vehicle: saline 110 % of control

CC1=CC(=O)OC(C)(C)C1
inactive: [14] 100 % of control | [21] 100 % of control | [22] 100 % of control

COc1cc(/C=N\NC(C)=O)cc(OC)c1OC
inactive: [18] 100 % of control | [19] 90 % of control | [20] 90 % of control

C(=N\Nc1nc2ccccc2s1)/c1ccc(/C=N/Nc2nc3ccccc3s2)cc1
inactive: [1] 109 % of control | [2] 104 % of control | [3] 114 % of control | [4] 100 % of control | [5] 100 % of control | [6] 104 % of control
